Settings: 2 mg/kg as adriamycin, tail vein, male BALB/c mouse
Procedure: To compare retention in blood of the respective liposomes, 2 mg/kg as the amount of adriamycin was administered from the tale vein to a male BALB/c mouse. After each period of time, the mouse was killed, and the plasma was collected. The amount of adriamycin was quantitatively analyzed by measuring fluorescence after extraction with hydrochloric acid/ethanol in accordance with a method of Konno et al. (Cancer Res. 47 4471 (1987)).
Accordingly, the amount of detected adriamycin is considered to reflect the behavior as the relevant liposome.

COc1cccc2c1C(=O)c1c(O)c3c(c(O)c1C2=O)C[C@@](O)(C(=O)CO)C[C@@H]3O[C@H]1C[C@H](N)[C@H](O)[C@H](C)O1 [free adriamycin, adriamycin]
retention in blood (concentration of adriamycin in blood plasma): disappeared from blood swiftly after the administration

— patent publication US20020025312A1, “BIFUNCTIONAL WATER-SOLUBLE POLYMER DERIVATIVE AND COMPLEX CONTAINING IT” (priority 1997, published 2002)
